Assay results taken from the NIST ThermoML archive (doi:10.1016/j.fluid.2018.09.026).
Several values for one entry are separate records, joined by “and”; a condition that tells them apart may be missing. Equal entries are not always repeated.

Conditions: Liquid; for mass density: Vibrating tube method; for viscosity: Vibrating wire viscometry

OCCOCCO [diethylene glycol]
Conditions | mass density [kg/m3] | viscosity
323.15 K, 19770 kPa | 1103.6 | –
323.15 K, 24680 kPa | 1105.8 | –
323.15 K, 29600 kPa | 1108 | –
323.15 K, 34530 kPa | 1110.1 | –
323.15 K, 39360 kPa | 1112.2 | –
323.15 K, 44290 kPa | 1114.3 | –
323.15 K, 49260 kPa | 1116.3 | –
323.15 K, 54100 kPa | 1118.2 | –
323.15 K, 59060 kPa | 1120.2 | –
323.15 K, 63880 kPa | 1122 | –
323.15 K, 68770 kPa | 1123.8 | –
333.15 K, 100 kPa | 1087 | –
333.15 K, 660 kPa | 1087.3 | –
333.15 K, 1120 kPa | 1087.5 | –
333.15 K, 1630 kPa | 1087.8 | –
333.15 K, 2100 kPa | 1088 | –
333.15 K, 3070 kPa | 1088.5 | –
333.15 K, 5060 kPa | 1089.5 | –
333.15 K, 7050 kPa | 1090.5 | –
333.15 K, 9930 kPa | 1091.9 | –
333.15 K, 14780 kPa | 1094.3 | –
333.15 K, 19770 kPa | 1096.7 | –
333.15 K, 24660 kPa | 1099 | –
333.15 K, 29540 kPa | 1101.2 | –
333.15 K, 34500 kPa | 1103.4 | –
333.15 K, 39330 kPa | 1105.5 | –
333.15 K, 44230 kPa | 1107.6 | –
333.15 K, 49130 kPa | 1109.7 | –
333.15 K, 54060 kPa | 1111.7 | –
333.15 K, 59020 kPa | 1113.7 | –
333.15 K, 63840 kPa | 1115.7 | –
333.15 K, 68830 kPa | 1117.5 | –
333.28 K, 210 kPa | – | 7.305 mPa·s [middle of 6 runs]
333.28 K, 1080 kPa | – | 7.347 mPa·s and 7.376 mPa·s and 7.374 mPa·s
333.28 K, 2290 kPa | – | 7.397 mPa·s [middle of 6 runs]
333.28 K, 5100 kPa | – | 7.491 mPa·s
333.28 K, 5110 kPa | – | 7.506 mPa·s and 7.492 mPa·s
333.28 K, 5120 kPa | – | 7.53 mPa·s and 7.547 mPa·s
333.28 K, 10340 kPa | – | 7.758 mPa·s and 7.739 mPa·s
333.28 K, 10360 kPa | – | 7.749 mPa·s and 7.734 mPa·s
333.28 K, 19960 kPa | – | 8.178 mPa·s [middle of 5 runs]
333.28 K, 30150 kPa | – | 8.721 mPa·s and 8.673 mPa·s
333.28 K, 30160 kPa | – | 8.678 mPa·s and 8.671 mPa·s
333.28 K, 40000 kPa | – | 9.197 mPa·s
333.28 K, 40010 kPa | – | 9.192 mPa·s and 9.199 mPa·s and 9.178 mPa·s
333.28 K, 50250 kPa | – | 9.728 mPa·s and 9.806 mPa·s
333.28 K, 50260 kPa | – | 9.736 mPa·s
333.28 K, 68880 kPa | – | 10.71 mPa·s
333.28 K, 69100 kPa | – | 10.77 mPa·s
333.28 K, 69180 kPa | – | 10.8 mPa·s
342.75 K, 250 kPa | – | 5.567 mPa·s and 5.585 mPa·s and 5.609 mPa·s
342.75 K, 260 kPa | – | 5.588 mPa·s and 5.573 mPa·s
342.75 K, 1040 kPa | – | 5.634 mPa·s [middle of 5 runs]
342.75 K, 2130 kPa | – | 5.655 mPa·s [middle of 5 runs]
342.75 K, 5010 kPa | – | 5.77 mPa·s
342.75 K, 5020 kPa | – | 5.764 mPa·s and 5.765 mPa·s
342.75 K, 9990 kPa | – | 5.9 mPa·s and 5.894 mPa·s and 5.912 mPa·s
342.75 K, 10000 kPa | – | 5.925 mPa·s
342.75 K, 20270 kPa | – | 6.257 mPa·s and 6.245 mPa·s
342.75 K, 20280 kPa | – | 6.256 mPa·s and 6.268 mPa·s
342.75 K, 30150 kPa | – | 6.641 mPa·s [middle of 6 runs]
342.75 K, 39690 kPa | – | 6.989 mPa·s
342.75 K, 39700 kPa | – | 6.991 mPa·s
342.75 K, 39710 kPa | – | 6.946 mPa·s and 6.939 mPa·s and 6.957 mPa·s
342.75 K, 50090 kPa | – | 7.319 mPa·s [middle of 6 runs]
342.75 K, 70440 kPa | – | 8.133 mPa·s
342.75 K, 70450 kPa | – | 8.148 mPa·s
342.75 K, 70460 kPa | – | 8.145 mPa·s
342.75 K, 70480 kPa | – | 8.152 mPa·s
342.75 K, 70500 kPa | – | 8.131 mPa·s
342.75 K, 70510 kPa | – | 8.177 mPa·s
343.15 K, 100 kPa | 1079.7 | –
343.15 K, 670 kPa | 1080 | –
343.15 K, 1100 kPa | 1080.2 | –
343.15 K, 1520 kPa | 1080.4 | –
343.15 K, 2120 kPa | 1080.7 | –
